Values belong to the molecule of their own block, whether it stands above or below them.
Columns and labels:
MMP-1 = biological target: T1, MMP-1 (Homo sapiens, UniProt P03956); test: In vitro metalloproteinase inhibition assay (colorimetric, thiopeptolide substrate), MMP-1; type: biochemical
T1 sequence (P03956 100-469): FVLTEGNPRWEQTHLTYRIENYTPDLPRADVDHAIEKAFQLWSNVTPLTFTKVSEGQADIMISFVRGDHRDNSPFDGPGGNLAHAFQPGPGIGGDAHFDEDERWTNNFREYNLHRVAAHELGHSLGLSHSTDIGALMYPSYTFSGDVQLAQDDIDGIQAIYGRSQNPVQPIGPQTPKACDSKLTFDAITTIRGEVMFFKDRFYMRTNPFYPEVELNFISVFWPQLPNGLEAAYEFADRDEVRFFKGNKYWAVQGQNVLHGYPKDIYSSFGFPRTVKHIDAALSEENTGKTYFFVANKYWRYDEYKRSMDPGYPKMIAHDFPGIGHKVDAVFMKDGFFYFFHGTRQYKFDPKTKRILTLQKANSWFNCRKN
Procedure: [The source words this procedure for another target and reports this target under the same test.] (§1) Compounds were screened using the following commercially available Biomol assay kits:
(§2) MMP-2 colorimetric assay kit-Catalogue number AK-408, MMP-9 colorimetric assay kit-Catalogue number AK-410, MMP-12 colorimetric assay kit-Catalogue number AK-402, Which are available from Affiniti Research Products Ltd. (Palatine House, Matford Court, Exeter, EX2 8NL, UK).
(§3) Inhibitors were provided in powdered form, and stored at 4° C. For each inhibitor a 1 mM stock solution in DMSO was prepared, dispensed into 20 μl aliquots and these aliquots stored at −20° C. The stock solution was diluted to give 8 inhibitor concentrations (recommended: 50 μM, 5 μM, 500 mM, 50 mM, 5 nM, 500 μM, 50 μM and 5 μM). Dilutions were made in the kit assay buffer. A five-fold dilution of the inhibitor stocks is made on addition to the assay wells, therefore final concentration range was from 10 μM to 1 pM.
(§4) Details are provided with the commercial kit, but can be summarised as follows: • Prepare test compound dilutions as above, • Add assay buffer to plate, • Add test compounds to plate • Prepare standard kit inhibitor NNGH (see kit for dilution factor) • Add NNGH to control inhibitor wells • Prepare MMP enzyme (see kit for dilution factor) • Add MMP to plate • Incubate plate at 37° C. for ˜15 min • Prepare thiopeptolide substrate (see kit for dilution factor) • Add substrate to plate • Count every 2 min for 1 hr, 37° C., 414 nm on a Labsystems iEMS plate reader.

MMP-12 = MMP-12 (Homo sapiens, UniProt P39900); test: In vitro metalloproteinase inhibition assay (Biomol MMP-12 colorimetric assay kit); type: biochemical
Procedure: as §1, §2, §3, §4

MMP-2 = MMP-2 (Homo sapiens, UniProt P08253); test: In vitro metalloproteinase inhibition assay (Biomol MMP-2 colorimetric assay kit); type: biochemical
Procedure: as §1
as §3, with “The stock solution was diluted to give 8 inhibitor concentrations (recommended: 50 μM, 5 μM, 500 mM, 50 mM, 5 nM, 500 μM, 50 μM and 5 μM).” left out

MMP-9 = MMP-9 (Homo sapiens, UniProt P14780); test: In vitro metalloproteinase inhibition assay (Biomol MMP-9 colorimetric assay kit); type: biochemical
Procedure: as §1
as §3, with “The stock solution was diluted to give 8 inhibitor concentrations (recommended: 50 μM, 5 μM, 500 mM, 50 mM, 5 nM, 500 μM, 50 μM and 5 μM).” left out

ApoE ligation model = test: Biodistribution in ApoE ligated animal model of MMP expression; type: in vivo, mice; conditions: for Carotid: Blood / Carotid: Heart: ratio
Description: The ApoE ligation model was also studied. ApoE mice are transgenic knock-out mice, which lack the ApoE gene, and are therefore unable to regulate their plasma cholesterol levels. As a consequence ApoE mice develop atherosclerotic lesions, a process which is accelerated with feeding of high fat diet. Further acceleration of lesion development can be achieved by ligating the carotid artery, resulting in advanced lesion formation within 4 weeks of surgery and high fat diet feeding. […] 105, 2686-2691 (2002)].

[1] = test system: Lewis Lung [LLC] Carcinoma Tumour model; test: Biodistribution in animal tumour model of MMP expression; type: in vivo; conditions: for % ID/g Tumour: 15 days tumour growth
Description: The in vivo Lewis Lung [LLC] Carcinoma Tumour model has been used for screening of MMP is due to reproducible up-regulation of several MMPs in the tumour. As such, this model provides a good assessment of the efficacy of the MMP is for in vivo targeting of lesions that express MMPs. Literature reports have shown that LLC cells express pro and active MMP-2 and pro NMP-9 and LLC tumours MMP-2 and MMP-9 (not classified as pro or active) [Bae et al Drugs Exp Clin Res. 29(1):15-23 (2003)].

MMP-8 = MMP-8 (Homo sapiens, UniProt P22894); test: In vitro metalloproteinase inhibition assay (colorimetric, thiopeptolide substrate), MMP-8; type: biochemical
Procedure: [The source words this procedure for another target and reports this target under the same test.] as §1, §2
as §3, with “A five-fold dilution of the inhibitor stocks is made on addition to the assay wells, therefore final concentration range was from 10 μM to 1 pM.” left out
as §4

[2] = between 5 and 120 minutes post injection

Sequence of MMP-2 (P08253 110-446 limits assumed): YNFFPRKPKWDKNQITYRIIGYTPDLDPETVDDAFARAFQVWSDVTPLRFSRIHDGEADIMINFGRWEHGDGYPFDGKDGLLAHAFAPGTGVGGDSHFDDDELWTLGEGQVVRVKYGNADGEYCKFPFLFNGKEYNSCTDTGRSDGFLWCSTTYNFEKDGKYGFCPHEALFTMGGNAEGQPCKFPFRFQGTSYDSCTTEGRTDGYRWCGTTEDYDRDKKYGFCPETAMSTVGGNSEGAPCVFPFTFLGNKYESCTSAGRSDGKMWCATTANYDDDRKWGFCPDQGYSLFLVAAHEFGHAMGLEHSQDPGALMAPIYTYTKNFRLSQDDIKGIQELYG
Sequence of MMP-9 (P14780 107-444 limits assumed): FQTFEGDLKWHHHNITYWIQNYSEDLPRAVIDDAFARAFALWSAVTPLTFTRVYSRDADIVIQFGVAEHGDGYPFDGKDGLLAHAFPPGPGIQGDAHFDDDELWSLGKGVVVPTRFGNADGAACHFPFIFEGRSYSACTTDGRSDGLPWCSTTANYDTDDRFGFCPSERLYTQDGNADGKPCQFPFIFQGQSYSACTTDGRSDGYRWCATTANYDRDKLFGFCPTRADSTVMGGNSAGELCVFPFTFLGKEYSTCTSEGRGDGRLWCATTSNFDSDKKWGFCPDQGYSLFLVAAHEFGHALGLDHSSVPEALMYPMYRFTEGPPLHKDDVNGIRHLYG
Sequence of MMP-12 (P39900 106-263 limits assumed): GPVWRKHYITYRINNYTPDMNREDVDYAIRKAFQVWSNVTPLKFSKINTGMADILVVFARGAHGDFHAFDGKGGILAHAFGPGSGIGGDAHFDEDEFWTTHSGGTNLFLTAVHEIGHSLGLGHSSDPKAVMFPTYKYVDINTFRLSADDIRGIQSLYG
Sequence of MMP-8 (P22894 101-467): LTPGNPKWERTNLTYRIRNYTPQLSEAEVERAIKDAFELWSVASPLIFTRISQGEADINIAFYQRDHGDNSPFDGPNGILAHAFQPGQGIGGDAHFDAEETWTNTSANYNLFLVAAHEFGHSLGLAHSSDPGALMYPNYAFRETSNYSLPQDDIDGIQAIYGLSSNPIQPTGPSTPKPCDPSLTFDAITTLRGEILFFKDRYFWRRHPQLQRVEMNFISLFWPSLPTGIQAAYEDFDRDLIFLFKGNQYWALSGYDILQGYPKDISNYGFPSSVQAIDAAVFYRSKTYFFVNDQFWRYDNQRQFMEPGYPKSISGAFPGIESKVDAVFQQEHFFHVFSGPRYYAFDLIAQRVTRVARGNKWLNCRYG

Ki (MMP-1): 28.5 nM | Ki (MMP-12): 8.3 nM | Ki (MMP-2): 21 ± 2.2 nM | Ki (MMP-9): 7.15 ± 3.32 nM
Compound: CNC(=O)C(CCC(=O)NCCOCCOCCOCCOCCOCCOCCOCCOCCOCCOCCOCCOCCC(=O)NCc1ccc(I)cc1)NC(=O)C(CC(=O)NO)CC(C)C (stereo not shown) [Compound 12]

Compound: CNC(=O)[C@H](Cc1ccc([123I])cc1)NC(=O)C[C@@H](CC(C)C)C(=O)NO [Compound 2A]
% ID/g Blood (ApoE ligation model; 5 min post injection): 6.5 % ID/g | % ID/g Carotid (ApoE ligation model; 5 min post injection): 3.3 % ID/g | % ID/g Heart (ApoE ligation model; 5 min post injection): 5.5 % ID/g | % ID/g Blood (ApoE ligation model; 120 min post injection): 1.5 % ID/g | % ID/g Carotid (ApoE ligation model; 120 min post injection): 2.7 % ID/g | % ID/g Heart (ApoE ligation model; 120 min post injection): 3.6 % ID/g | % Retained Carotid (ApoE ligation model; 120 min post injection): 83% | % ID/g Blood (ApoE ligation model; 360 min post injection): 1.6 % ID/g | % ID/g Carotid (ApoE ligation model; 360 min post injection): 1.6 % ID/g | % ID/g Heart (ApoE ligation model; 360 min post injection): 1.5 % ID/g | % Retained Carotid (ApoE ligation model; 360 min post injection): 47% | carotid uptake and retention (ApoE ligation model; [2]): exhibited carotid uptake and retention | carotid to blood ratios (ApoE ligation model; mouse, in vivo): good | clearance from normal tissues [e.g. blood and other background tissues] (ApoE ligation model; mouse, in vivo): significant | Carotid: Blood (ApoE ligation model; 5 min post injection): 0.5 | Carotid: Heart (ApoE ligation model; 5 min post injection): 0.8 | Carotid: Blood (ApoE ligation model; 120 min post injection): 1.8 | Carotid: Heart (ApoE ligation model; 120 min post injection): 0.8 | Carotid: Blood (ApoE ligation model; 360 min post injection): 1.0 | Carotid: Heart (ApoE ligation model; 360 min post injection): 1.0 | % ID GI Excretion ([1]; 5 min post injection): 17.81 % ID | % ID Heart ([1]; 5 min post injection): 0.86 % ID | % ID Liver ([1]; 5 min post injection): 29.76 % ID | % ID Lung ([1]; 5 min post injection): 1.38 % ID | % ID Urinary Excretion ([1]; 5 min post injection): 19.85 % ID | % ID/g Blood ([1]; 5 min post injection): 5.89 % ID/g | % ID/g Tumour ([1]; 5 min post injection): 1.39 % ID/g | % ID GI Excretion ([1]; 30 min post injection): 28.46 % ID | % ID Heart ([1]; 30 min post injection): 0.57 % ID | % ID Liver ([1]; 30 min post injection): 24.43 % ID | % ID Lung ([1]; 30 min post injection): 0.73 % ID | % ID Urinary Excretion ([1]; 30 min post injection): 22.52 % ID | % ID/g Blood ([1]; 30 min post injection): 2.19 % ID/g | % Retained Tumour ([1]; 30 min post injection): 78% | % ID/g Tumour ([1]; 30 min post injection): 1.08 % ID/g | % ID GI Excretion ([1]; 60 min post injection): 29.5 % ID | % ID Heart ([1]; 60 min post injection): 0.56 % ID | % ID Liver ([1]; 60 min post injection): 20.04 % ID | % ID Lung ([1]; 60 min post injection): 0.59 % ID | % ID Urinary Excretion ([1]; 60 min post injection): 27.7 % ID | % ID/g Blood ([1]; 60 min post injection): 1.49 % ID/g | % Retained Tumour ([1]; 60 min post injection): 87% | % ID/g Tumour ([1]; 60 min post injection): 1.21 % ID/g | % ID GI Excretion ([1]; 120 min post injection): 34.42 % ID | % ID Heart ([1]; 120 min post injection): 0.49 % ID | % ID Liver ([1]; 120 min post injection): 13.45 % ID | % ID Lung ([1]; 120 min post injection): 0.45 % ID | % ID Urinary Excretion ([1]; 120 min post injection): 31.03 % ID | % ID/g Blood ([1]; 120 min post injection): 1.38 % ID/g | % Retained Tumour ([1]; 120 min post injection): 97% | % ID/g Tumour ([1]; 120 min post injection): 1.35 % ID/g | clearance from normal tissues [e.g. blood and other background tissues] ([1]; between 5 and 120 minutes p.i.): occurred between 5 and 120 minutes p.i. | tumour uptake and retention [1, 2]: exhibited tumour uptake and retention

Ki (MMP-1): 23.9 nM | Ki (MMP-12): 4.7 nM | Ki (MMP-2): 8.8 ± 3.1 nM | Ki (MMP-9): 2.85 ± 3.5 nM
Compound: CNC(=O)C(CCC(=O)NCCOCCOCCOCCOCCOCCOCCOCCOCCOCCOCCOCCOCCC(=O)NCc1ccc(I)cc1)NC(=O)CC(CC(C)C)C(=O)NO (stereo not shown) [Compound 10]

Ki (MMP-8): 0.082 nM | Ki (MMP-1): 2.68 ± 0.19 nM | Ki (MMP-12): 0.51 nM | Ki (MMP-2): 0.21 ± 0.05 nM | Ki (MMP-9): 0.04 ± 0.03 nM
Compound: CC(C)CC(CC(=O)NC(Cc1c[nH]c2ccccc12)C(=O)NCCOCCOCCOCCOCCOCCOCCOCCOCCOCCOCCOCCOCCC(=O)NCc1ccc(I)cc1)C(=O)NO (stereo not shown) [Compound 14]

Ki (MMP-1): 1.77 nM | Ki (MMP-12): 0.4 ± 0.04 nM | Ki (MMP-2): 0.2 ± 0.11 nM | Ki (MMP-9): 0.11 ± 0.08 nM
Compound: CNC(=O)[C@H](Cc1ccc(I)cc1)NC(=O)[C@@H](CC(=O)NO)CC(C)C [Compound 3]

Ki (MMP-1): 1.57 ± 2.37 nM
Compound: CC(C)C[C@H](CC(=O)NO)C(=O)N[C@@H](Cc1c[nH]c2ccccc12)C(=O)NCc1ccc(I)cc1 [Compound 7]

Compound: CC(C)C[C@H](CC(=O)N[C@@H](C)C(=O)NCc1ccc([123I])cc1)C(=O)NO [Compound 18A]
% ID/g Blood (ApoE ligation model; 5 min post injection): 7.3 % ID/g | % ID/g Carotid (ApoE ligation model; 5 min post injection): 2.9 % ID/g | % ID/g Heart (ApoE ligation model; 5 min post injection): 10.1 % ID/g | % ID/g Blood (ApoE ligation model; 120 min post injection): 2.4 % ID/g | % ID/g Carotid (ApoE ligation model; 120 min post injection): 1.0 % ID/g | % ID/g Heart (ApoE ligation model; 120 min post injection): 2.6 % ID/g | % Retained Carotid (ApoE ligation model; 120 min post injection): 34% | % ID/g Blood (ApoE ligation model; 360 min post injection): 1.2 % ID/g | % ID/g Carotid (ApoE ligation model; 360 min post injection): 0.8 % ID/g | % ID/g Heart (ApoE ligation model; 360 min post injection): 1.0 % ID/g | % Retained Carotid (ApoE ligation model; 360 min post injection): 26% | Carotid: Blood (ApoE ligation model; 5 min post injection): 0.5 | Carotid: Heart (ApoE ligation model; 5 min post injection): 0.3 | Carotid: Blood (ApoE ligation model; 120 min post injection): 0.4 | Carotid: Heart (ApoE ligation model; 120 min post injection): 0.4 | Carotid: Blood (ApoE ligation model; 360 min post injection): 0.7 | Carotid: Heart (ApoE ligation model; 360 min post injection): 0.8

% ID/g Blood (ApoE ligation model; 5 min post injection): 9.9 % ID/g | % ID/g Carotid (ApoE ligation model; 5 min post injection): 3.9 % ID/g | % ID/g Heart (ApoE ligation model; 5 min post injection): 9.8 % ID/g | % ID/g Blood (ApoE ligation model; 60 min post injection): 3.2 % ID/g | % ID/g Carotid (ApoE ligation model; 60 min post injection): 1.4 % ID/g | % ID/g Heart (ApoE ligation model; 60 min post injection): 2.2 % ID/g | % Retained Carotid (ApoE ligation model; 60 min post injection): 36% | % ID/g Blood (ApoE ligation model; 120 min post injection): 2.5 % ID/g | % ID/g Carotid (ApoE ligation model; 120 min post injection): 1.4 % ID/g | % ID/g Heart (ApoE ligation model; 120 min post injection): 1.5 % ID/g | % Retained Carotid (ApoE ligation model; 120 min post injection): 37% | Carotid: Blood (ApoE ligation model; 5 min post injection): 0.3 | Carotid: Heart (ApoE ligation model; 5 min post injection): 0.4 | Carotid: Blood (ApoE ligation model; 60 min post injection): 0.6 | Carotid: Heart (ApoE ligation model; 60 min post injection): 0.7 | Carotid: Blood (ApoE ligation model; 120 min post injection): 0.6 | Carotid: Heart (ApoE ligation model; 120 min post injection): 1.0
Compound: CC(C)C[C@H](CC(=O)N[C@@H](Cc1c[nH]c2ccccc12)C(=O)NCc1ccc([123I])cc1)C(=O)NO [Compound 6A]

Ki (MMP-1): 18 ± 1.69 nM | Ki (MMP-12): 0.4 ± 0.09 nM | Ki (MMP-2): 0.61 ± 0.16 nM | Ki (MMP-9): 0.5 ± 0.42 nM
Compound: CC(C)CC(CC(=O)NO)C(=O)NC(Cc1c[nH]c2ccccc12)C(=O)NCCOCCOCCOCCOCCOCCOCCOCCOCCOCCOCCOCCOCCC(=O)NCc1ccc(I)cc1 (stereo not shown) [Compound 16]

From patent publication US20080279769A1, “Enzyme Inhibitor Imaging Agents” (priority 2004, published 2008)
